pIC50: −log10 of the molar value.
Molecular target: T1, Purified ERAP1(37-941)-10His (ERAP1) (Homo sapiens, UniProt Q9NZ08)
T1 construct: Purified ERAP1(37-941)-10His (ERAP1); 10His (C)
Test: ERAP1 mediated hydrolysis of an amide substrate measured in a biochemical system (10-mer decapeptide substrate)
Conditions: 10-mer substrate, 23° C. for 1 h, excitation 279 nm and emission 355 nm; read-out: IC50 vs Decapeptide WRVYEKC(Dnp)ALK-acid (where Dnp is Dinitrophenyl maleimide) (10-mer)
Method: Biological Assay 1: ERAP1 Mediated Hydrolysis of an Amide Substrate Measured in a Biochemical System
1× Assay buffer (AB): 25 mM Bis-tris propane, 0.05% w/v Hydroxypropylmethylcellulose pH 7.75 made with Optima grade water
Decapeptide WRVYEKC(Dnp)ALK-acid (where Dnp is Dinitrophenyl maleimide) (10-mer) L-Leucine 7-amido-4-methylcoumarin (L-AMC)
12.5 μL ERAP1 enzyme in 1×AB was combined with 250 nL test compound in DMSO. 12.5 μL of either 240 μM L-AMC in 1×AB or 100 μM 10-mer in 1×AB was added to the reaction and incubated at 23° C. for 1 h. For detection, plates were read at excitation 365 nm and emission 442 nm (L-AMC) or excitation 279 nm and emission 355 nm (10-mer). Compound IC50 was determined using a 4 parameter equation.

T1 sequence (Q9NZ08 37-941): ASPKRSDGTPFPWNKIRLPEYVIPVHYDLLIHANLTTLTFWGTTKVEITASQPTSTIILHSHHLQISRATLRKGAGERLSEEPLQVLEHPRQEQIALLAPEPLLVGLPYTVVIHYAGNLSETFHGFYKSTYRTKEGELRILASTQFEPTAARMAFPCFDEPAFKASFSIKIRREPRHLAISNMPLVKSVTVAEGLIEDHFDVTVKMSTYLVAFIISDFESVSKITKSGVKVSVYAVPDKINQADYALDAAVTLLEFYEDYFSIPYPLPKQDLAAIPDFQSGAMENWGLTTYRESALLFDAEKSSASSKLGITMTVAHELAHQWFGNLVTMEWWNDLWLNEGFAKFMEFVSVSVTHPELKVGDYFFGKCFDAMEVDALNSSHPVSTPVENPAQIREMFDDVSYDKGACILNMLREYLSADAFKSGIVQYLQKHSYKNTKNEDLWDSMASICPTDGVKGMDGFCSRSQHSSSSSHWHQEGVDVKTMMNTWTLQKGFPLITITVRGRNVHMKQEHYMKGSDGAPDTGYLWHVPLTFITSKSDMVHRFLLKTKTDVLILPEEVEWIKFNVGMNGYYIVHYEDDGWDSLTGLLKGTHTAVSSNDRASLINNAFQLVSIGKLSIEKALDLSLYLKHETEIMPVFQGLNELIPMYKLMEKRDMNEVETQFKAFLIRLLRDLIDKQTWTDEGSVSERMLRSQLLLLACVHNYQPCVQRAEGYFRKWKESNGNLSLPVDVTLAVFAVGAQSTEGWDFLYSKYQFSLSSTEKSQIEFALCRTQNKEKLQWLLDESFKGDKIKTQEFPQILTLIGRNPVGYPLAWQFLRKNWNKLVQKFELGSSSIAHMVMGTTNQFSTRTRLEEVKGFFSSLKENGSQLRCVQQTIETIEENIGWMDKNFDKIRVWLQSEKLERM

pIC50	SMILES
> 6.30	CCc1ccc(C(=O)O)cc1S(=O)(=O)Nc1cc(C(F)(F)F)ccc1-c1ccccn1 [Example 37, 4-ethyl-3-(N-(2-(pyridin-2-yl)-5-(trifluoromethyl)phenyl)sulfamoyl)benzoic acid]
> 6.30	CCc1ccc(C(=O)O)cc1S(=O)(=O)Nc1cc(S(C)(=O)=O)ccc1-c1cccc(C#N)c1 [Example 39, 3-(N-(3′-cyano-4-(methylsulfonyl)-[1,1′-biphenyl]-2-yl)sulfamoyl)-4-ethylbenzoic acid]
> 6.30	COc1ccc(C(=O)O)cc1S(=O)(=O)Nc1cc(C(F)(F)F)ccc1-c1cccc(Cl)c1 [Example 46, 3-(N-(3′-chloro-4-(trifluoromethyl)-[1,1′-biphenyl]-2-yl)sulfamoyl)-4-methoxybenzoic acid]
< 5.30	COc1ccc(C(=O)O)cc1S(=O)(=O)Nc1cc(C(F)(F)F)ccc1-c1ccc(C)cc1 [Example 47, 4-methoxy-3-(N-(4′-methyl-4-(trifluoromethyl)-[1,1′-biphenyl]-2-yl)sulfamoyl)benzoic acid]
> 6.30	COc1ccc(C(=O)O)cc1S(=O)(=O)Nc1cc(C(F)(F)F)ccc1-c1ccc(Cl)cc1 [Example 49, 3-(N-(4′-chloro-4-(trifluoromethyl)-[1,1′-biphenyl]-2-yl)sulfamoyl)-4-methoxybenzoic acid]
> 5.30	COc1ccc(C(=O)O)cc1S(=O)(=O)Nc1cc(C(F)(F)F)ccc1-c1ccccc1C(C)C [Example 51, 3-(N-(2′-isopropyl-4-(trifluoromethyl)-[1,1′-biphenyl]-2-yl)sulfamoyl)-4-methoxybenzoic acid]
> 6.30	CCc1ccc(C(=O)O)cc1S(=O)(=O)Nc1cc(-n2cnnn2)ccc1-c1ccccc1 [Example 52, 3-(N-(4-(tetrazol-1-yl)-[1,1′-biphenyl]-2-yl)sulfamoyl)-4-ethylbenzoic acid]
> 6.30	CCc1ccc(C(=O)O)cc1S(=O)(=O)Nc1cc(-n2cnnn2)ccc1-c1cccc(F)c1 [Example 53, 4-ethyl-3-(N-(3′-fluoro-4-(tetrazol-1-yl)-[1,1′-biphenyl]-2-yl)sulfamoyl) benzoic acid]
> 6.30	CCc1ccc(C(=O)O)cc1S(=O)(=O)Nc1cc(S(C)(=O)=O)ccc1-c1cccnc1 [Example 54, 4-ethyl-3-(N-(5-(methylsulfonyl)-2-(pyridin-3-yl)phenyl)sulfamoyl) benzoic acid]
> 6.30	CCc1ccc(C(=O)O)cc1S(=O)(=O)Nc1cc(C#N)ccc1-c1cccnc1 [Example 57, 3-(N-(5-cyano-2-(pyridin-3-yl)phenyl)sulfamoyl)-4-ethylbenzoic acid]
> 6.30	CCc1ccc(C(=O)O)cc1S(=O)(=O)Nc1cc(C(F)(F)F)ccc1-c1ccc(C)s1 [Example 58, 4-ethyl-3-(N-(2-(5-methylthiophen-2-yl)-5-(trifluoromethyl)phenyl)sulfamoyl)benzoic acid]
> 6.30	CCc1ccc(C(=O)O)cc1S(=O)(=O)Nc1cc(C(F)(F)F)ccc1-c1ccc(OC)s1 [Example 59, 4-ethyl-3-(N-(2-(5-methoxythiophen-2-yl)-5-(trifluoromethyl)phenyl)sulfamoyl)benzoic acid]
> 6.30	COc1ccc(C(=O)O)cc1S(=O)(=O)Nc1cc(C#N)ccc1-c1ccccc1 [Example 60, 3-(N-(4-cyano-[1,1′-biphenyl]-2-yl)sulfamoyl)-4-methoxybenzoic acid]
> 6.30	COc1ccc(C(=O)O)cc1S(=O)(=O)Nc1cc(-c2nnn[nH]2)ccc1-c1ccccc1 [Example 63, 3-(N-(4-(tetrazol-5-yl)-[1,1′-biphenyl]-2-yl)sulfamoyl)-4-methoxybenzoic acid]
> 6.30	COc1ccc(C(=O)O)cc1S(=O)(=O)Nc1cc(-c2nnn[nH]2)ccc1-c1cccc(F)c1 [Example 64, 3-(N-(3′-fluoro-4-(tetrazol-5-yl)-[1,1′-biphenyl]-2-yl)sulfamoyl)-4-methoxybenzoic acid]
> 6.30	COc1ccc(C(=O)O)cc1S(=O)(=O)Nc1cc(-c2nnn[nH]2)ccc1-c1cccs1 [Example 65, 3-(N-(5-(tetrazol-5-yl)-2-(thiophen-2-yl)phenyl)sulfamoyl)-4-methoxybenzoic acid]
> 6.30	CCc1ccc(C(=O)O)cc1S(=O)(=O)Nc1cc(C(F)(F)F)ccc1-c1ncccc1F [Example 66, 4-ethyl-3-(N-(2-(3-fluoropyridin-2-yl)-5-(trifluoromethyl)phenyl)sulfamoyl)benzoic acid]
> 6.30	CCc1ccc(C(=O)O)cc1S(=O)(=O)Nc1cc(C(F)(F)F)ccc1-c1ccc(Cl)s1 [Example 70, 3-(N-(2-(5-chlorothiophen-2-yl)-5-(trifluoromethyl)phenyl)sulfamoyl)-4-ethylbenzoic acid]
> 6.30	CCc1ccc(C(=O)O)cc1S(=O)(=O)Nc1cc(S(C)(=O)=O)ccc1-c1ccccn1 [Example 71, 4-ethyl-3-(N-(5-(methylsulfonyl)-2-(pyridin-2-yl)phenyl)sulfamoyl)benzoic acid]
> 6.30	O=C(O)c1ccc(C2CC2)c(S(=O)(=O)Nc2cc(C(F)(F)F)ccc2-c2ccccn2)c1 [Example 72, 4-cyclopropyl-3-(N-(2-(pyridin-2-yl)-5-(trifluoromethyl)phenyl)sulfamoyl)benzoic acid]

More lines, now with the values behind:

SMILES	pIC50
CCc1ccc(C(=O)O)cc1S(=O)(=O)Nc1cc(C#N)ccc1-c1ccccn1 [Example 38, 3-(N-(5-cyano-2-(pyridin-2-yl)phenyl)sulfamoyl)-4-ethylbenzoic acid]	> 6.30
CCc1ccc(C(=O)O)cc1S(=O)(=O)Nc1cc(C#N)ccc1-c1ccccc1 [Example 40, 3-(N-(4-cyano-[1,1′-biphenyl]-2-yl)sulfamoyl)-4-ethylbenzoic acid]	> 6.30
CCc1ccc(C(=O)O)cc1S(=O)(=O)Nc1cc(C#N)ccc1-c1cccc(F)c1 [Example 41]	> 6.30
CCc1ccc(C(=O)O)cc1S(=O)(=O)Nc1cc(C#N)ccc1-c1cccc(C#N)c1 [Example 42, 3-(N-(3′,4-dicyano-[1,1′-biphenyl]-2-yl)sulfamoyl)-4-ethylbenzoic acid]	> 6.30
CCc1ccc(C(=O)O)cc1S(=O)(=O)Nc1cc(C#N)ccc1-c1cccs1 [Example 43, 3-(N-(5-cyano-2-(thiophen-2-yl)phenyl)sulfamoyl)-4-ethylbenzoic acid]	> 6.30
COc1ccc(C(=O)O)cc1S(=O)(=O)Nc1cc(S(C)(=O)=O)ccc1-c1ccccn1 [Example 44, 4-methoxy-3-(N-(5-(methylsulfonyl)-2-(pyridin-2-yl)phenyl)sulfamoyl)benzoic acid]	> 6.30
COc1ccc(C(=O)O)cc1S(=O)(=O)Nc1cc(C#N)ccc1-c1ccccn1 [Example 45, 3-(N-(5-cyano-2-(pyridin-2-yl)phenyl)sulfamoyl)-4-methoxybenzoic acid]	> 6.30
COc1ccc(-c2ccc(C(F)(F)F)cc2NS(=O)(=O)c2cc(C(=O)O)ccc2OC)cc1 [Example 48, 4-methoxy-3-(N-(4′-methoxy-4-(trifluoromethyl)-[1,1′-biphenyl]-2-yl)sulfamoyl)benzoic acid]	< 5.30
CCc1ccc(C(=O)O)cc1S(=O)(=O)Nc1cc(C(F)(F)F)ccc1-n1ccnc1 [Example 50, 3-(N-(2-(imidazol-1-yl)-5-(trifluoromethyl)phenyl)sulfamoyl)-4-ethylbenzoic acid]	> 6.30
O=C(O)c1ccc(C2CC2)c(S(=O)(=O)Nc2cc(C(F)(F)F)ccc2-c2ccccc2)c1 [Example 55, 4-cyclopropyl-3-(N-(4-(trifluoromethyl)-[1,1′-biphenyl]-2-yl)sulfamoyl) benzoic acid]	> 6.30
CCc1ccc(C(=O)O)cc1S(=O)(=O)Nc1cc(-n2cnnn2)ccc1-c1cccc(C#N)c1 [Example 56, 3-(N-(3′-cyano-4-tetrazol-1-yl-[1,1′-biphenyl]-2-yl)sulfamoyl)-4-ethylbenzoic acid]	> 6.30
COc1ccc(C(=O)O)cc1S(=O)(=O)Nc1cc(C#N)ccc1-c1cccc(F)c1 [Example 61, 3-(N-(4-cyano-3′-fluoro-[1,1′-biphenyl]-2-yl)sulfamoyl)-4-methoxybenzoic acid]	> 6.30
COc1ccc(C(=O)O)cc1S(=O)(=O)Nc1cc(C#N)ccc1-c1cccs1 [Example 62, 3-(N-(5-cyano-2-(thiophen-2-yl)phenyl)sulfamoyl)-4-methoxybenzoic acid]	> 6.30
CCc1ccc(C(=O)O)cc1S(=O)(=O)Nc1cc(C(F)(F)F)ccc1-c1ccc(F)s1 [Example 67, 4-ethyl-3-(N-(2-(5-fluorothiophen-2-yl)-5-(trifluoromethyl)phenyl)sulfamoyl)benzoic acid]	> 6.30
CCc1ccc(C(=O)O)cc1S(=O)(=O)Nc1cc(C(F)(F)F)ccc1-c1ncccn1 [Example 68, 4-ethyl-3-(N-(2-(pyrimidin-2-yl)-5-(trifluoromethyl)phenyl)sulfamoyl)benzoic acid]	> 6.30
CCc1ccc(C(=O)O)cc1S(=O)(=O)Nc1cc(C(F)(F)F)ccc1-c1ccc[nH]1 [Example 69, 3-(N-(2-(pyrrol-2-yl)-5-(trifluoromethyl)phenyl)sulfamoyl)-4-ethylbenzoic acid]	> 6.30
CCc1ccc(C(=O)O)cc1S(=O)(=O)Nc1cc(C(F)(F)F)ccc1-c1cccn1C [Example 73, 4-ethyl-3-(N-(2-(1-methyl-pyrrol-2-yl)-5-(trifluoromethyl)phenyl)sulfamoyl)benzoic acid]	> 6.30
CS(=O)(=O)c1ccc(-c2cccs2)c(NS(=O)(=O)c2cc(C(=O)O)ccc2C2CC2)c1 [Example 74, 4-cyclopropyl-3-(N-(5-(methylsulfonyl)-2-(thiophen-2-yl)phenyl)sulfamoyl) benzoic acid]	> 6.30
